Data from patent US8268862B2, “Sirtuin modulating compounds” (Sirtris Pharmaceuticals, Inc., priority 2007, dated 2012).

Biological target: T1, SIRT1 (Homo sapiens, UniProt Q96EB6)
T1 sequence (Q96EB6 1-747): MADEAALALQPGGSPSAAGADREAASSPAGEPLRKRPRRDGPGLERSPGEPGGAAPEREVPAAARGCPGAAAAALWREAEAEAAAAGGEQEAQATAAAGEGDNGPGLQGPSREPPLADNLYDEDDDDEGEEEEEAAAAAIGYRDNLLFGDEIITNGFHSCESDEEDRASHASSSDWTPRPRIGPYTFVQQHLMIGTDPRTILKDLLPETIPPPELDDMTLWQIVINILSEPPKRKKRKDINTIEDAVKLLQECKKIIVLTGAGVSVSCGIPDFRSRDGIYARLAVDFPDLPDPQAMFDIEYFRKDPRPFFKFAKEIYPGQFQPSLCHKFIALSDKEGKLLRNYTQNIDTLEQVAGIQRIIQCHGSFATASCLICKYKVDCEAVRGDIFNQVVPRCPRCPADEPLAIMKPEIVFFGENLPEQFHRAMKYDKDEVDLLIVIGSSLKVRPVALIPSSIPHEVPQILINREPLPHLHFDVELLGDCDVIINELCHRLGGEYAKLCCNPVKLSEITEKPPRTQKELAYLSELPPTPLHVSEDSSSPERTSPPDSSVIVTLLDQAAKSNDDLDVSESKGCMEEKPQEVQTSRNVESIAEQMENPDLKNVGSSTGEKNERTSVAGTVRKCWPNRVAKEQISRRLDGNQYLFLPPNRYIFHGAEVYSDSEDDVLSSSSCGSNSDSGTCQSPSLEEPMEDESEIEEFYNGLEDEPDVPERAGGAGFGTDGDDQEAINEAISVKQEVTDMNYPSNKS
Assay: mass spectrometry based SIRT1 deacetylation assay (activation)
Type: biochemical
Details: 0.5 μM peptide substrate, 120 μM βNAD+, 10 nM SIRT1, 25 min at 25° C.; for EC1.5 (concentration of test compound that results in 150% activation of SIRT1): NA = not active in the assay; for Emax: read-out: % FOLD ACT. (percent maximum fold activation of SIRT1)

| SMILES | EC1.5 (concentration of test compound that results in 150% activation of SIRT1) [NM] | Emax [%] | % FOLD ACT. (percent maximum fold activation of SIRT1) [%] |
| --- | --- | --- | --- |
| O=C(Nc1ccccc1-c1nc2cc(CNC3CCNCC3)cnc2s1)c1ccc2ccccc2n1 [Compound 116] | 270 | > 500 | – |
| O=C(Nc1ccccc1-c1nc2cc(CN[C@H]3CC[C@H](O)CC3)cnc2s1)c1ccc2ccccc2n1 [Compound 117] | 480 | 324 | – |
| O=C(Nc1ccccc1-c1nc2cc(CN3CCCC(F)(F)C3)cnc2s1)c1ccc2ccccc2n1 [Compound 118] | – | 100 | – |
| N[C@@H]1CCN(Cc2cnc3sc(-c4ccccc4NC(=O)c4ccc5ccccc5n4)nc3c2)C1 [Compound 119] | 390 | – | >500 |
| O=C(Nc1ccccc1-c1nc2cc(CN[C@H]3CCNC3)cnc2s1)c1ccc2ccccc2n1 [Compound 120] | 820 | > 500 | – |
| O=C(Nc1ccccc1-c1nc2cc(CN[C@@H]3CCC[C@H]3O)cnc2s1)c1ccc2ccccc2n1 [Compound 121] | 750 | 291 | – |
| O=C(Nc1ccccc1-c1nc2cc(CN3CCNCC3)cnc2s1)c1cn2ccccc2n1 [Compound 123] | 1940 | 400 | – |
| O=C(Nc1ccccc1-c1nc2cc(CN3CCNCC3)cnc2s1)c1cn2cc(F)ccc2n1 [Compound 124] | 1060 | 314 | – |
| O=C(Nc1ccccc1-c1nc2cc(CN3CCNCC3)cnc2s1)c1cn2cc(Cl)ccc2n1 [Compound 125] | – | 437 | – |
| O=C(Nc1ccccc1-c1nc2cc(CN3CCNCC3)cnc2s1)c1nc2ccc(F)cc2o1 [Compound 126] | – | 100 | – |
| O=C(Nc1ccccc1-c1nc2cc(CN3CCOCC3)cnc2s1)c1cn2cc(Cl)ccc2n1 [Compound 127] | – | 143 | – |
| O=C(Nc1ccccc1-c1nc2cc(CN3CCOCC3)cnc2s1)c1cn2cc(F)ccc2n1 [Compound 128] | 1310 | 227 | – |
| O=C(Nc1ccccc1-c1nc2cc(CN3CC[C@@H](F)C3)cnc2s1)c1cn2cc(C(F)(F)F)ccc2n1 [Compound 129] | – | 100 | – |
| COCCN1CCN(Cc2cnc3sc(-c4ccccc4NC(=O)c4cnc5ccccc5n4)nc3c2)CC1 [Compound 130] | 990 | 161 | – |
| COCCN1CCN(Cc2cnc3sc(-c4ccccc4NC(=O)c4cc(C)nc(-c5ccccc5)n4)nc3c2)CC1 [Compound 131] | 106 | 500 | – |
| Cc1cc(C(=O)Nc2ccccc2-c2nc3cc(CN4CCOCC4)cnc3s2)nc(-c2ccccc2)n1 [Compound 132] | 215 | 500 | – |
| COCCN1CCN(Cc2cnc3sc(-c4ccccc4NC(=O)c4cccc(-c5ccccc5Cl)n4)nc3c2)CC1 [Compound 133] | 90 | 500 | – |
| COCCN1CCN(Cc2cnc3sc(-c4ccccc4NC(=O)c4cccc(-c5ccccc5F)n4)nc3c2)CC1 [Compound 134] | 69 | 500 | – |
| Cc1cc(C(=O)Nc2ccccc2-c2nc3cc(CN4CCCC4)cnc3s2)nc(-c2ccccc2)n1 [Compound 135] | 759 | 274 | – |
| COCCN1CCN(Cc2cnc3sc(-c4ccccc4NC(=O)c4cccc(-c5ccc(C(F)(F)F)cc5)n4)nc3c2)CC1 [Compound 136] | 448 | 461 | – |
| COCCN1CCN(Cc2cnc3sc(-c4ccccc4NC(=O)c4cccc(-c5ccc(Cl)cc5)n4)nc3c2)CC1 [Compound 137] | 214 | 448 | – |
| COCCN1CCN(Cc2cnc3sc(-c4ccccc4NC(=O)c4cccc(-c5cccc(Cl)c5)n4)nc3c2)CC1 [Compound 138] | 88 | 497 | – |
